“Also recorded” adds a separate entry of the source.

For one data set, the system named is duplex supF DNA. Description: UVA-induced covalent bond formation to duplex supF DNA. Type of data set: binding, E. coli. The following applies: following UVA irradiation.
For the next data set, the system named is 250 bp supF PCR fragment. Nature of the data set: Hinf I restriction enzyme protection assay, PCR amplified supF target. Type of data set: binding, E. coli. The following applies: 100-fold molar excess of oligonucleotide. An excerpt:
FIG. 4 is a schematic representation showing the basis of a restriction enzyme protection assay to detect site-specific triplex formation within the supF gene. The formation of triplex DNA by psoralen-AG10 at its targeted site (bp 167–176 of the supF gene) overlaps with the Hinf I restriction site at bp 164–168 (indicated in the diagram by the box around the appropriate base pairs). Digestion of the unprotected 250 bp supF PCR fragment with Hinf I is expected to yield three fragments of sizes 150, 65, and 35 bp. In contrast, with the Hinf I site at bp 164–168 blocked by triplex formation at bp 167–176, fragments of sizes 150 and 100 bp are predicted.
The 250 bp supF target (70 nM) was incubated with a 100-fold molar excess of psoralen-AG10 as described for the binding assay. Irradiation of samples was performed at a dose of 1.8 J/cm^2. A radiometer was used to measure the lamp output (typical UVA irradiance of 5–7 mW/cm^2 at 320–400 nm). Following the binding and irradiation steps, samples were digested for 2 hours at 37° C. with Hinf I. Loading buffer was added and samples were heated 10 minutes at 55° C., and run for 1 hour on a 4.5% Nusieve gel in TAE buffer at 80 v (10 v/cm).
Site-specific formation of triplex DNA. […] This is diagrammed in FIG. 4. […] Analysis by agarose gel electrophoresis of Hinf I digestions of the 250 bp supF gene PCR fragment under various conditions was done. The supF fragment was incubated with or without psoralen-AG10 at a 100-fold molar excess, treated by 1.8 J/cm^2 of UVA irradiation, and then subjected to Hinf I digestion. Digestion of the unprotected 250 bp supF PCR fragment with Hinf I yielded three fragments of sizes 150, 65, and 35 in contrast with the uncut fragment of 250 bp. […] In the absence of psoralen-AG10, UVA light had no effect on Hinf I digestion.

Data set [1] concerns supF gene in lambda supF DNA. Description: Targeted mutagenesis of supF gene in lambda supF DNA (in vitro packaging, plaques on E. coli). The following applies: for supF mutations per 1000 phage: lambda DNA 3 nM; for supF mutation frequency: plus UVA 1.8 J/cm^2. As for the experimental part: (§1) Targeted mutagenesis was achieved by incubating pso-AG10 with lambda supF DNA in vitro to form triplex at positions 167 to 176 of the supF gene and bring the tethered psoralen into proximity with the targeted base pair at position 167 as shown in Table 1. The numbers in the table represent the frequency of mutations seen in either the supF gene or the cI gene in the lambda supF genome following the indicated treatment. The lambda DNA at 3 nM was incubated with or without a 1000-fold molar excess of the indicated oligonucleotides (3 μM) as described in FIG. 2.
(§2) UVA (365 nm) irradiation of selected samples was performed at a dose of 1.8 J/cm^2. A radiometer was used to measure lamp output (typical UVA irradiance of 5–7 mW/cm^2 at 320–400 nm). The DNA was packaged in vitro into phage particles, using the method of Hohn, Methods in Enzymology 68:299–309 (1979), and the phage particles were adsorbed to E. coli and grown as individual plaques to allow genetic analyses of the supF and cI genes.
(§3) Photoactivation of the psoralen generated a DNA adduct, and in vitro packaging of the psoralen-AG10. The lambda supF DNA complex allowed growth of the phage in bacteria to fix the adduct into a mutation. The phage particles were grown as individual plaques on a bacterial lawn to detect targeted mutagenesis in the supF gene and to measure the extent of non-targeted mutagenesis by screening for the function of an unrelated gene, the lambda repressor (cI) gene. Mutations in these genes yield colorless plaques among blue ones and clear plaques among turbid ones, respectively.

The subject of data set [2] is lambda repressor (cI) gene. Description: Non-targeted mutagenesis of cI gene in lambda supF DNA. The arrangement: species or system lambda phage. As to conditions: for cI mutations per 1000 phage: lambda DNA 3 nM, oligonucleotide 3 μM, UVA 1.8 J/cm^2. The method, then:
as §1, §2, §3

Data set [3] has as its system supF gene of the lambda vector. Nature of the data set: Sequence analysis of supF mutants from lambda vector. The arrangement: species or system E. coli. The following applies: plus UVA. An excerpt:
FIGS. 2A and 2B show a sequence analysis of targeted mutagenesis in the supF gene by the psoralen-linked triplex-forming oligonucleotide (pso-AG10). In FIG. 2A, mutations produced by pso-AG10 and UVA are indicated above each base pair, with the listed base representing the change from the sequence in the top strand. […] The asterisk indicates the targeted base pair at position 167. DNA sequence data was obtained by automated methods after polymerase chain reaction amplification of the supF genes from lambda phage plaques in accordance with the method of Connell et al., Biotechniques 5:342 (1987). FIG. 2B is a compilation of mutations induced in supF by 8-methoxypsoralen and UVA in mouse L-cells using the lambda supF vector of FIG. 1 or generated using a plasmid shuttle vector in monkey Vero cells in accordance with the method of Bredberg and Nachmansson, Carcinogenesis 8:1923 (1987), to compare the mutations produced in supF by free psoralen with those produced by the triplex forming oligonucleotide AG10.
To obtain direct evidence for targeted mutagenesis, a series of independent mutants produced in the supF gene of the lambda vector by pso-AG10 and UVA were sequenced. […] The A:T base pair at 167 forms a triplet with the 5′ adenine to which the psoralen is tethered in AG10, and so it is the closest base pair to the psoralen. The overwhelming predominance of the T:A to A:T transversion at this site is consistent with the mutagenic action of psoralen, which tends to form adducts at pyrimidines, and especially at thymidines. It should be noted that these mutations are independent and none of the mutations represent siblings because each packaged lambda particle gives rise to a single, separate lambda plaque on the bacterial lawn.

Setting [4] is: supF fragment 70 nM, UVA 1.8 J/cm^2.
The mark [5] stands for this setting: oligonucleotide 3 μM (1000-fold molar excess), UVA 1.8 J/cm^2.

Consider “pso-^5′GGGGGAAGGA^3′ (DNA NGGGGGAAGGA; psoralen conjugated at 5' end, further chemistry not given here) [pso-GA10, reference compound]”, for which the “Covalent bond to labeled duplex supF DNA” value with duplex supF DNA is given as “did not”. Further, the “Protection from Hinf I digestion” value in the data set on 250 bp supF PCR fragment (setting [4]) is listed as “no protection from Hinf I cutting”. In addition, the “supF mutations per 1000 phage” value in data set [1] (setting [5]) is recorded as 0.004 (2/504.198) per 1000 phage. In addition, in data set [1] (plus UVA), the “Difference between supF and cI mutation frequency” value came to 5 fold; the “Fold lower frequency of supF mutations than pso-AG10” value was determined as 582 fold; the “Mutagenesis relative to background (untreated lambda DNA)” value is given as “barely above background”. In addition, the supF mutation frequency in data set [1] was found to be 0.0004%. The “cI mutations per 1000 phage” value in data set [2] is 0.019 (9/483,475) per 1000 phage. In addition, in data set [3], the “Position of supF mutations relative to targeted base pair 167” value is on record as “Neither of the two mutations induced by the reverse oligomer, pso-GA10, were found to occur at base pair 167”.

For the substance “4′-hydroxymethyl-4,5′,8-trimethylpsoralen-^5′AGGAAGGGGG^3′ (DNA NAGGAAGGGGG; 4'-hydroxymethyl-4,5',8-trimethylpsoralen conjugated at 5' end, further chemistry not given here) [pso-AG10]”, in the data set on duplex supF DNA, the “Covalent bond to labeled duplex supF DNA” value is “formed a covalent bond to labeled duplex supF DNA following UVA irradiation”. In addition, the figures for the “Protection from Hinf I digestion” value with 250 bp supF PCR fragment (no UVA) and in the data set with 250 bp supF PCR fragment (setting [4]) were “not sufficient to prevent Hinf I digestion” and “protection of the Hinf I site at bp 164–168 but not the one at bp 129–133”, respectively. Further, the “supF mutations per 1000 phage” value is reported as 2.33 (263/112.872) per 1000 phage in data set [1] (setting [5]) and <0.014 (0/69.000) per 1000 phage in data set [1] (oligonucleotide 3 μM, no UVA). Also, the “supF mutagenesis without UVA” value in data set [1] (no UVA) is on record as “No significant mutagenesis”. For the same substance, the “Difference between supF and cI mutation frequency” value in data set [1] (plus UVA) is given as “approximately 100 fold”. For the same substance, the “Specificity of targeted mutagenesis considering target size of cI (765 bp) and supF (184 bp)” value in data set [1] (plus UVA) was not above 500 fold. Also, the supF mutation frequency in data set [1] amounted to 0.233%. Moreover, in data set [2], the “cI mutations per 1000 phage” value is recorded as 0.024 (28/1,162,000) per 1000 phage. For the same substance, in data set [2] (plus UVA 1.8 J/cm^2), the cI mutation frequency is given as 0.0024%. In addition, the “Share of sequenced supF mutations that are the T:A to A:T transversion at targeted base pair 167” value in data set [3] (25 mutants) is 56%. Also, the “Position of supF mutations relative to targeted base pair 167” value in data set [3] is “All except one of the 25 mutations produced by pso-AG10 is at or near the targeted T:A base pair at position 167; also recorded: almost all were targeted by the triplex-forming oligonucleotide”.

The values above are taken from patent US7078389B2, “Chemically modified oligonucleotide for site-directed mutagenesis” (priority 1993, dated 2006).
